Reference: patent US8329141B2, “Locoregional internal radionuclide ablation of abnormal tissues” (Board of Regents, The University of Texas System, priority 2004, dated 2012)

Key:
[1] = Biodistribution and projected human radiation dosimetry after intravenous or intramuscular injection; assay type: in vivo, female Fisher rats; details: for human dosimetry estimate, kidney / human dosimetry estimate, red marrow: from rat biodistribution
Description: To evaluate the radiation toxicity of YCl3 after intravenous or intramuscular injection, parallel experiments were performed to evaluate the biodistribution and projected human radiation dosimetry of both ^111In—Cl and YCl3. The experiments used three female Fisher rats (140-160 grams) for each set of injections. Each rat was injected intravenously, or was injected intramuscularly in the right thigh, with 0.05 mCi of YCl3 or ^111In—Cl (with no carrier added) in 0.1 ml saline (pH 5-6). The effect of initial exposure of the radiopharmaceuticals to interstitial fluid was estimated by serum protein binding experiments using Millipore Centrifree filters as set forth in Example 2. Organs including the right and left femur, as well as the right and left thigh muscles, were harvested from each rat 7 days after injection. Human dosimetry for each radiopharmaceutical was constructed using established anthropomorphic models.

[2] = tested on: CSF proteins; assay: Binding to CSF proteins (Centrifree filter separation); assay type: in vitro ADME, human (patients); details: 0.2, 0.5 or 1 μCi added to diluted CSF, 20 minutes; physiologic range, all concentrations tested
Description: To test the hypothesis that local sequestration of ^111In—Cl is due to protein binding, both ^111In—Cl and YCl3 were tested for binding to CSF and serum proteins. Serum proteins were obtained from residual baseline serum and CSF proteins were obtained from patients participating in other research protocols who had consented to blood sampling. To determine the level of ^111In—Cl protein binding, 0.2, 0.5, or 1 μCi of ^111In—Cl was added to diluted CSF (0.125 or 0.5) or diluted serum protein (0.125 and 0.25) and incubated for 20 minutes. To determine the level of YCl3 protein binding, 0.2, 0.5, or 1 μCi of YCl3 was added to diluted CSF (0.063 or 0.5) or diluted serum protein (0.063 and 0.375), and incubated for 20 minutes. After incubation, free radiopharmaceuticals were separated from protein bound ^111In—Cl or YCl3 using Amicon Centrifree Micropartition filters in a single centrifugation step at 3000 g for 15 minutes according to manufacturer's instructions (Amicon, Beverly, Mass.). The percent binding of YCl3 or ^111In—Cl to the CSF or serum protein was then calculated. As shown in FIG. 6 and FIG. 7 respectively, both YCl3 and ^111In—Cl bind avidly to CSF and serum protein within the physiologic range (a dilution factor between 0.2 and 0.6) at all concentrations tested. At room temperature, both YCl3 and ^111In—Cl have greater than 95% binding to serum proteins.

[3] = tested on: serum proteins; assay: Binding to serum proteins (Centrifree filter separation); assay type: in vitro ADME, human (patients); details: 0.2, 0.5 or 1 μCi added to diluted serum protein, 20 minutes; physiologic range, all concentrations tested
Description: To test the hypothesis that local sequestration of ^111In—Cl is due to protein binding, both ^111In—Cl and YCl3 were tested for binding to CSF and serum proteins. Serum proteins were obtained from residual baseline serum and CSF proteins were obtained from patients participating in other research protocols who had consented to blood sampling. To determine the level of ^111In—Cl protein binding, 0.2, 0.5, or 1 μCi of ^111In—Cl was added to diluted CSF (0.125 or 0.5) or diluted serum protein (0.125 and 0.25) and incubated for 20 minutes. To determine the level of YCl3 protein binding, 0.2, 0.5, or 1 μCi of YCl3 was added to diluted CSF (0.063 or 0.5) or diluted serum protein (0.063 and 0.375), and incubated for 20 minutes. After incubation, free radiopharmaceuticals were separated from protein bound ^111In—Cl or YCl3 using Amicon Centrifree Micropartition filters in a single centrifugation step at 3000 g for 15 minutes according to manufacturer's instructions (Amicon, Beverly, Mass.). The percent binding of YCl3 or ^111In—Cl to the CSF or serum protein was then calculated. As shown in FIG. 6 and FIG. 7 respectively, both YCl3 and ^111In—Cl bind avidly to CSF and serum protein within the physiologic range (a dilution factor between 0.2 and 0.6) at all concentrations tested. At room temperature, both YCl3 and ^111In—Cl have greater than 95% binding to serum proteins. […]

[4] = In vivo local sequestration at the injection site by serial scintigrams (intramuscular or intratumoral injection); set-up: species or system Fischer rats
Description: To further study the localization of unsealed radiopharmaceuticals after injection, in vivo imaging studies were carried out comparing ^111In DTPA (In-DTPA) (negative control) and Indium-111-Iron Macroaggregate (^111In-IMA) (positive control) to ^111In—Cl. ^111In emits gamma rays that can be detected using a gamma camera. ^111In-IMA was generated according to methods disclosed in U.S. Ser. No. 10/724,027, incorporated herein by reference. Each radiopharmaceutical was administered by intramuscular injection into the thigh muscle of Fischer rats which weighed approximately 200 grams. Two different doses of ^111In—Cl were administered to the rats, 0.4 and 0.8 mCi in 0.2 ml saline. Distribution of the ^111In—Cl was determined through serial scintigrams. […] In comparison, when ^111In-IMA was administered to rats, consistent retention (84%) of the ^111In-IMA was found 70 hours after administration (FIG. 8). Persistent intramuscular localization of ^111In—Cl was also found in rats for both dose levels of ^111In—Cl, with over 50% of the injected ^111In—Cl remaining in the injection site after three days.
To investigate whether the addition of free iron to radionuclides would increase the locoregional retention of various radionuclides, admixtures of ^67Ga-citrate, YCl3, or ^111In—Cl, were prepared with FeCl3.6H2O at 1-5 mg Fe/ml. Each radionuclide combination/admixture was administered either by intramuscular (IM) injection into the thigh muscle of the left leg (0.1-1.0 mCi) or by intratumoral (IT) injection into a tumor in the right leg (0.4-5.0 mCi) of Fischer rats. Distribution of the radionuclide was determined through serial scintigrams. Whole body images were acquired with a Siemens M-CAM camera using respective photo peaks of Ga-67, Tl-201 (for Y-90), or In-111, and 15-20% windows in photo energy. The typical imaging time was 0.5 to 5 minutes. A respective standard was present in the field of view (0.1-0.5 mCi), and used for image quantification by comparing images with the standard and normalizing the initial injection time as 100%. The Fe content in each combination/admixture was 1 mg in the total injectate.

[5] = intravenous (Hirano et al. 1993); cited from earlier work
[6] = intratracheal instillation (Hirano et al. 1990); cited from earlier work

**Q.** For `[Cl][90Y]([Cl])[Cl]` [YCl3, Yttrium-90 chloride], which skeletal distribution ([1]; estimated from the left femur (opposite to the injection site)) is on record?
**A.** about 16%

**Q.** And the “radiation uptake in the right thigh muscle” value ([1]; intramuscular injection in right thigh)?
**A.** high

**Q.** What about the “radiation uptake in right femur versus contralateral organ” value ([1]; intramuscular injection in right thigh, decreasing over time to) of the same molecule?
**A.** 3 times higher

**Q.** And the “radiation uptake in right femur versus contralateral organ” value ([1]; intramuscular injection in right thigh, initial)?
**A.** 6 times higher

**Q.** What about the “human dosimetry estimate, kidney” value ([1]; intramuscular) of the same molecule?
**A.** 1.47 cGy/mCi

**Q.** And the “human dosimetry estimate, red marrow” value ([1]; intramuscular)?
**A.** 0.65 cGy/mCi

**Q.** What about the “organs with the highest uptake” value ([1]; intravenous injection, 0.05 mCi in 0.1 ml saline) of the same molecule?
**A.** spleen, liver, and kidney

**Q.** And the “human dosimetry estimate, kidney” value ([1]; intravenous)?
**A.** 13.1 cGy/mCi

**Q.** And the “human dosimetry estimate, red marrow” value ([1]; intravenous)?
**A.** 5.77 cGy/mCi

**Q.** And the “binding to CSF” value [2]?
**A.** bind avidly

**Q.** What about the “binding to serum protein” value [3] of the same molecule?
**A.** bind avidly

**Q.** And the “retention time with free iron” value ([4]; admixture with FeCl3.6H2O, intramuscular or intratumoral injection)?
**A.** Increase in the retention time

**Q.** And the “time over which cleared from the injection site” value ([4]; intramuscular injection in rats, without free iron, FIG. 15)?
**A.** approximately 20 hours

**Q.** What about the “retention in the injection site” value ([4]; intramuscular injection, without free iron) of the same molecule?
**A.** not locally sequestered

**Q.** And the “formation of colloidal material in blood plasma” value [5]?
**A.** dose-dependent formation of colloidal material

**Q.** And the primary target organs [5]?
**A.** liver and spleen

**Q.** And the pulmonary retention half-life [6]?
**A.** 169 days
